Data as given in patent publication US7598417B2, “Substituted fluoroethyl ureas as alpha 2 adrenergic agents” (Allergan, Inc., priority 2007, dated 2009).
pEC50: −log10 of the molar value.

Experiments:
Assay type in all cases: cell-based
[1] = target: T1, alpha2A receptor (Homo sapiens, UniProt P08913); assay: Receptor Selection and Amplification Technology (RSAT) assay, alpha2A; settings: for pEC50 / Alpha 2A EC50: RSAT, NIH-3T3 cells cotransfected with receptor and Gq/i5, not active = not active at concentrations less than 10 micromolar; for pEC50: read-out: Alpha 2A EC50; for Alpha 2A IA (intrinsic activity): ratio of maximal effect of the drug to maximal effect of standard full agonist brimonidine (UK14304)
T1 construct: expressed in transfected cells; host or cells: NIH-3T3
T1 sequence (P08913 1-465): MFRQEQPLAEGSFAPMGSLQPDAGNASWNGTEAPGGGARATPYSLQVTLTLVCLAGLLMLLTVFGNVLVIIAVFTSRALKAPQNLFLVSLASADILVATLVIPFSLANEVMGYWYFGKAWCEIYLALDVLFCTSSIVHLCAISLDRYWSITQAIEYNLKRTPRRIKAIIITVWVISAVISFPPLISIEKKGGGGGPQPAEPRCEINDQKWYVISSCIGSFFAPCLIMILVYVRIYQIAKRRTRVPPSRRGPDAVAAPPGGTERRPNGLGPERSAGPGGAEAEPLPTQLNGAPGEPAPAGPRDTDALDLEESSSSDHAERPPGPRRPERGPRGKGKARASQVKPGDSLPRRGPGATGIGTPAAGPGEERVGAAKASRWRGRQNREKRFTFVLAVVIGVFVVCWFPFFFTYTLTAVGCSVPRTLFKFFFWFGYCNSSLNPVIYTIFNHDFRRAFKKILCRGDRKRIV
Method: (§1) Receptor Selection and Amplification Technology (RSAT) Assay
(§2) The RSAT assay measures a receptor-mediated loss of contact inhibition that results in selective proliferation of receptor-containing cells in a mixed population of confluent cells. The increase in cell number is assessed with an appropriate transfected marker gene such as β-galactosidase, the activity of which can be easily measured in a 96-well format. Receptors that activate the G protein, Gq, elicit this response. Alpha2 receptors, which normally couple to Gi, activate the RSAT response when coexpressed with a hybrid Gq protein that has a Gi receptor recognition domain, called Gq/i5.
(§3) NIH-3T3 cells are plated at a density of 2×10^6 cells in 15 cm dishes and maintained in Dulbecco's modified Eagle's medium supplemented with 10% calf serum. One day later, cells are cotransfected by calcium phosphate precipitation with mammalian expression plasmids encoding p-SV-β-galactosidase (5-10 μg), receptor (1-2 μg) and G protein (1-2 μg). 40 μg salmon sperm DNA may also be included in the transfection mixture. Fresh media is added on the following day and 1-2 days later, cells are harvested and frozen in 50 assay aliquots. Cells are thawed and 100 μl added to 100 μl aliquots of various concentrations of drugs in triplicate in 96-well dishes. Incubations continue 72-96 hr at 37° C. After washing with phosphate-buffered saline, β-galactosidase enzyme activity is determined by adding 200 μl of the chromogenic substrate (consisting of 3.5 mM o-nitrophenyl-β-D-galactopyranoside and 0.5% nonidet P-40 in phosphate buffered saline), incubating overnight at 30° C. and measuring optical density at 420 nm. The absorbance is a measure of enzyme activity, which depends on cell number and reflects a receptor-mediated cell proliferation. The efficacy or intrinsic activity is calculated as a ratio of the maximal effect of the drug to the maximal effect of a standard full agonist for each receptor subtype. Brimonidine, also called UK14304, the chemical structure of which is shown below, is used as the standard agonist for the alpha2A, alpha2B and alpha2C receptors. The EC50 is the concentration at which the drug effect is half of its maximal effect.
(§4) EC50 values are nanomolar. NA stands for “not active” at concentrations less than 10 micromolar. IA stands for “intrinsic activity.”

[2] = target: T2, alpha2C receptor (Homo sapiens, UniProt P18825); assay: Receptor Selection and Amplification Technology (RSAT) assay, alpha2C; settings: for Alpha 2C EC50 / pEC50: RSAT, NIH-3T3 cells cotransfected with receptor and Gq/i5, not active = not active at concentrations less than 10 micromolar; for pEC50: read-out: Alpha 2C EC50; for Alpha 2C IA (intrinsic activity): ratio of maximal effect of the drug to maximal effect of standard full agonist brimonidine (UK14304)
T2 construct: expressed in transfected cells; host or cells: NIH-3T3
T2 sequence (P18825 1-462): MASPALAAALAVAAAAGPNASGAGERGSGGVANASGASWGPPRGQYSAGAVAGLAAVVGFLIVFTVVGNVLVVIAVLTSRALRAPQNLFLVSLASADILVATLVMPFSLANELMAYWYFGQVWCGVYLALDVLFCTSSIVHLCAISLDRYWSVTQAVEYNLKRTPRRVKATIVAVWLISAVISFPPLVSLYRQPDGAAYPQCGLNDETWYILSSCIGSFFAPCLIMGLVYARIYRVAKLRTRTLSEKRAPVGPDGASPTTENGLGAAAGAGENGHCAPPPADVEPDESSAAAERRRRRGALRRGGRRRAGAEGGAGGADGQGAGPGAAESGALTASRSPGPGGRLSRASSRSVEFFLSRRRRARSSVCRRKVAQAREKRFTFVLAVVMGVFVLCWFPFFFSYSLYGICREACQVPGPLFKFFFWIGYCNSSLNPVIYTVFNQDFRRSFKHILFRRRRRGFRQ
Method: as §1, §2, §3, §4

[3] = target: T3, alpha2B receptor (Homo sapiens, UniProt P18089); assay: Receptor Selection and Amplification Technology (RSAT) assay, alpha2B; settings: for pEC50: read-out: Alpha 2B EC50; for Alpha 2B IA (intrinsic activity): ratio of maximal effect of the drug to maximal effect of standard full agonist brimonidine (UK14304)
T3 construct: expressed in transfected cells; host or cells: NIH-3T3
T3 sequence (P18089 1-450): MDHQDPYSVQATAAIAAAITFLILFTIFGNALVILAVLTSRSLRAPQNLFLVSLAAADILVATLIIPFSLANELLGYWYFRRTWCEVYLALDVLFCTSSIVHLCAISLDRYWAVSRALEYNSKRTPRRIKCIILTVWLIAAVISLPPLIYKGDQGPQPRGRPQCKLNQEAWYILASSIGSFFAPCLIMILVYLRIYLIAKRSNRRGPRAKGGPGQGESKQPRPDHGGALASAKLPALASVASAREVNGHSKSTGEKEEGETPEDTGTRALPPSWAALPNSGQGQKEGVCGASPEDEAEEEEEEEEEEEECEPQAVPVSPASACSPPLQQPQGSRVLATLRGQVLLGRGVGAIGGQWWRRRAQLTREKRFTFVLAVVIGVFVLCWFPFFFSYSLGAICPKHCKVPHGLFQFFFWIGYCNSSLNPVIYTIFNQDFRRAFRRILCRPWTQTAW
Method: as §1, §2, §3
The results of the RSAT assay with several exemplary compounds of the invention are disclosed in Table 1 above together with the chemical formulas of these exemplary compounds. EC50 values are nanomolar. NA stands for “not active” at concentrations less than 10 micromolar. IA stands for “intrinsic activity.”

[4] = RSAT, NIH-3T3 cells cotransfected with receptor and Gq/i5, not active = not active at concentrations less than 10 micromolar

Row | SMILES | pEC50 [1] | Alpha 2A IA (intrinsic activity) [1] | Alpha 2C EC50 [2] | pEC50 [3, 4] | Alpha 2B IA (intrinsic activity) [3] | Alpha 2A EC50 [1] | pEC50 [2] | Alpha 2C IA (intrinsic activity) [2] | Alpha 2B EC50 [3, 4]
1 | CCC[C@@H]1CCCC[C@H]1NC(=O)NCCF | 5.83 | 0.4 | not active | 5.76 | 0.84 |  |  |  | 
2 | CCC1=CC(NC(=O)NCCF)CCC1 (stereo not shown) |  |  |  |  |  | not active | 6.46 | 0.32 | not active
3 | CCc1cccc2c1CCC2NC(=O)NCCF (stereo not shown) |  |  |  | 7.97 | 0.99 | not active | 6.99 | 0.47 | 
4 | Cc1cccc2c1CC(NC(=O)NCCF)C2 (stereo not shown) |  |  |  | 7.00 | 0.98 | not active | 6.34 | 0.4 | 
5 | O=C(NCCF)NC1Cc2ccc(Cl)cc2C1 (stereo not shown) |  |  | not active | 5.75 | 0.31 | not active |  |  | 
6 | COc1cccc2c1CCCC2NC(=O)NCCF (stereo not shown) | 5.63 | 0.37 |  | 6.54 | 0.84 |  | 6.06 | 0.51 | 
7 | CC1=C(C)C(NC(=O)NCCF)CC1 (stereo not shown) | 6.23 | 0.36 |  | 7.43 | 1.07 |  | 6.67 | 0.64 | 
8 | Nc1cccc2c1CCC2NC(=O)NCCF (stereo not shown) | 6.37 | 0.48 |  | 7.44 | 1.0 |  | 5.89 | 0.54 | 
9 | CC1=CC(NC(=O)NCCF)CCC1 (stereo not shown) |  |  |  | 6.65 | 0.42 | not active | 6.28 | 0.4 | 
10 | O=C(NCCF)NCC1CCc2ccccc21 (stereo not shown) |  |  |  | 6.42 | 0.76 | not active | < 5.70 | 0.38 | 
11 | O=C(NCCF)NC1CCc2ccc(Cl)cc21 (stereo not shown) | 6.46 | 0.63 |  | 7.92 | 0.99 |  | 7.07 | 0.7 | 
12 | CC1=CCCCC1NC(=O)NCCF (stereo not shown) |  |  |  | 7.13 | 0.9 | not active | 6.34 | 0.58 | 
13 | O=C(NCCF)NC1CCCc2occc21 (stereo not shown) |  |  |  | 7.05 | 0.81 | not active | 6.34 | 0.44 | 
14 | O=C(NCCF)NC1CCCCc2ccc(F)cc21 (stereo not shown) | < 5.70 | 0.31 |  | 6.04 | 0.54 |  | 6.47 | 0.3 | 
